Experimental data as given in patent US20200000825A1, “METHODS AND COMPOSITIONS FOR TREATING AND PREVENTING VIRAL INFECTIONS” (ENTERIN LABORATORIES, INC., priority 2009, published 2020).

These compounds were tested on HUVECs (assay: Thrombin induced stress fiber formation in endothelial cells). Settings: aminosterol 20 μM, thrombin 20 ng/ml, 2 hours.
Assay type: cell-based, human
Procedure: The basic methods have been published (Williams, […] et al. 2001). HUVECs were grown on fibronectin-covered coverslips in EGM medium. […] Following a rinse, the cells were exposed to a 1:400 dilution of an FITC-goat antimurine antibody and 250 ng/ml TRITC phalloidin. The stained coverslips were visualized by fluorescence microscopy.

| SMILES | Disruption of thrombin induced stress fiber formation |
| --- | --- |
| CC(C)[C@@H](CC[C@@H](C)[C@H]1CC[C@H]2[C@@H]3[C@H](O)C[C@H]4CC(N)CC[C@]4(C)[C@H]3CC[C@]12C)OS(=O)(=O)O (stereo partly drawn) [Compound E] | not observed and No |
| CC(C)[C@H](CC[C@@H](C)[C@H]1CC[C@H]2[C@@H]3[C@H](O)C[C@H]4C[C@@H](NCCCNCCCCN)CC[C@]4(C)[C@H]3CC[C@]12C)OS(=O)(=O)O [Compound C] | disrupt thrombin induced stress fiber formation and inhibited thrombin-induced stress fiber formation and Yes |
| CC(C)[C@@H](CC[C@H](C)[C@H]1CC[C@H]2[C@@H]3[C@H](O)C[C@H]4C[C@@H](NCCCNCCCCN)CC[C@]4(C)[C@H]3CC[C@]12C)OS(=O)(=O)O [Compound D] | not observed and inactive and No |
| CC(C)[C@@H](CC[C@@H](C)[C@H]1CC[C@H]2[C@@H]3[C@H](O)C[C@H]4C[C@H](NCCCNCCCCN)CC[C@]4(C)[C@H]3CC[C@]12C)OS(=O)(=O)O [Compound B] | disrupt thrombin induced stress fiber formation and inhibited thrombin-induced stress fiber formation and Yes |
| CC(C)[C@@H](CC[C@@H](C)[C@H]1CC[C@H]2[C@@H]3[C@@H](O)C[C@H]4C[C@@H](NCCCNCCCCN)CC[C@]4(C)[C@H]3CC[C@]12C)OS(=O)(=O)O [Compound A] | disrupt thrombin induced stress fiber formation and inhibited thrombin-induced stress fiber formation and Yes |
| CC(C)[C@@H](CC[C@@H](C)[C@H]1CC[C@H]2[C@@H]3[C@H](O)C[C@H]4C[C@@H](NCCCOCCCN)CC[C@]4(C)[C@H]3CC[C@]12C)OS(=O)(=O)O [Compound F] | not observed and No |
